Data taken from ChEMBL document CHEMBL5385977, “Small molecules modulating RNA splicing: a review of targets and future perspectives” (RSC Med Chem, 2024).

Key:
[1] = Inhibition of N-terminal His-tagged U2AF35-UHM (unknown origin) expressed in Escherichia coli Rosetta cells (DE3) incubated for 1 hr by HTRF method; design: species or system Homo sapiens
[2] = biological target: Vascular endothelial growth factor receptor 2 (Homo sapiens, UniProt P35968); experiment: Inhibition of human VEGFR2 (unknown origin) incubated for 1 hrs in presence of ATP by ELISA assay
[3] = biological target: Programmed cell death protein 1/Programmed cell death 1 ligand 1 (Homo sapiens, UniProt Q15116+Q9NZQ7); experiment: Inhibition of PD-1/PD-L1 interaction (unknown origin) incubated for 24 hrs by HTRF assay; type: protein-complex assay
Splicing factor 45 = biological target: T1, Splicing factor 45 (Homo sapiens, UniProt Q96I25); experiment: Inhibition of His-tagged SPF45-UHM (unknown origin) (301 to 401 residues) expressed in Escherichia coli BL21 (DE3) cells by using biotinylated-RKSRWDETP as substrate preincubated for 30 mins followed by substrate addition and measured after 1 hr by AlphaScreen assay
T1 sequence (Q96I25 whole entry): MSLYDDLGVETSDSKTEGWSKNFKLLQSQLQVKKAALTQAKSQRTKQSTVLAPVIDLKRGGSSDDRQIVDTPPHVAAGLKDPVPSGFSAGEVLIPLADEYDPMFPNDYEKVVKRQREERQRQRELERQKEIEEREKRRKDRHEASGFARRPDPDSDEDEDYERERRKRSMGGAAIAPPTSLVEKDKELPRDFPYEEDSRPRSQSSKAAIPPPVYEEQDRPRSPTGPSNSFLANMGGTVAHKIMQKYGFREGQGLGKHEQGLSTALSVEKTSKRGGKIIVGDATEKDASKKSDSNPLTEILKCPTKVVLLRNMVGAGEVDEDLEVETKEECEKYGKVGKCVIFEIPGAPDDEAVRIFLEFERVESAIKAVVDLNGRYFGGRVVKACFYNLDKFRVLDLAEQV

Sequence of Vascular endothelial growth factor receptor 2 (P35968 whole entry): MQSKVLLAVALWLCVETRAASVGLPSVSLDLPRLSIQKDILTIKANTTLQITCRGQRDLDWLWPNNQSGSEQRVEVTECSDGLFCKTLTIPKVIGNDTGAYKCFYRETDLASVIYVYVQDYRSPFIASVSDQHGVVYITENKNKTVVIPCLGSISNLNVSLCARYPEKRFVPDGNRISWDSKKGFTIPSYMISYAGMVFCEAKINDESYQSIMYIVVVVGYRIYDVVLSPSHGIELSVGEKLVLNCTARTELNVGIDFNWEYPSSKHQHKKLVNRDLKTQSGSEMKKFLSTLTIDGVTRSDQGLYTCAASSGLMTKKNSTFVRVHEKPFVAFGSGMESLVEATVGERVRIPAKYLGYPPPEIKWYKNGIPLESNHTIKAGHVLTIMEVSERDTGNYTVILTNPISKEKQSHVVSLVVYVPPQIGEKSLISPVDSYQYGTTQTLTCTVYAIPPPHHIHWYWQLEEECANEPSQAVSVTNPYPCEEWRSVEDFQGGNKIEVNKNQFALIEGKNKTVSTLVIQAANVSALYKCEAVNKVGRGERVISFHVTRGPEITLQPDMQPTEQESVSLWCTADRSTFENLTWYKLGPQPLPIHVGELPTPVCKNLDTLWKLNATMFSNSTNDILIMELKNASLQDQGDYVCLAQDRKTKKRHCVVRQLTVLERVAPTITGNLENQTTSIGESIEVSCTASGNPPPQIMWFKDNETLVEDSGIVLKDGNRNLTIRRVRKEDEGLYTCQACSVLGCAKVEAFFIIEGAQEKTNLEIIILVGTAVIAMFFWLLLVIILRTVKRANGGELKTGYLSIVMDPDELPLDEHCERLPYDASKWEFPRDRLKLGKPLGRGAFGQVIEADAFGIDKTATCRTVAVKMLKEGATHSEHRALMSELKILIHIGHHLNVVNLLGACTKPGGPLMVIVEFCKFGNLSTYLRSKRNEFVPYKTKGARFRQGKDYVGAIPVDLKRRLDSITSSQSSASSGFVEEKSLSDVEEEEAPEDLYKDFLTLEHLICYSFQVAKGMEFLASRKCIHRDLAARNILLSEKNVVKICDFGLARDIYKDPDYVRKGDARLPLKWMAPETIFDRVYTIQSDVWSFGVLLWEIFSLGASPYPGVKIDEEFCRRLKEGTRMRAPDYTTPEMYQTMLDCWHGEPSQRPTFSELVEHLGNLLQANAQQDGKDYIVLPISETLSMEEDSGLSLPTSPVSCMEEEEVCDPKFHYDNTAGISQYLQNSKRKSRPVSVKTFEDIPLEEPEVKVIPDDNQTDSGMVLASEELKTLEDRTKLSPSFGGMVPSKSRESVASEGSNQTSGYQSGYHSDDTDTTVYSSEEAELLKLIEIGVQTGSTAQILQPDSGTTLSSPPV
Sequence of Programmed cell death protein 1/Programmed cell death 1 ligand 1 (Q15116 whole entry, the tested form may be a part): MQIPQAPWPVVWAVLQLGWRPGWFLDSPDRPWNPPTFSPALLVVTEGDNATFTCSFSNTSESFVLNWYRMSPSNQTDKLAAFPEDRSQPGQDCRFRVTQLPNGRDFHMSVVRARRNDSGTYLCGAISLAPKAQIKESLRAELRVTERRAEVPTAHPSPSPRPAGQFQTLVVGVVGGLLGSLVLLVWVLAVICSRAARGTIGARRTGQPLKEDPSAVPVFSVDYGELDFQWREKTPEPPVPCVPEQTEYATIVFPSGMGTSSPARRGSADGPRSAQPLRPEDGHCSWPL
Sequence of Programmed cell death protein 1/Programmed cell death 1 ligand 1 (Q9NZQ7 whole entry, the tested form may be a part): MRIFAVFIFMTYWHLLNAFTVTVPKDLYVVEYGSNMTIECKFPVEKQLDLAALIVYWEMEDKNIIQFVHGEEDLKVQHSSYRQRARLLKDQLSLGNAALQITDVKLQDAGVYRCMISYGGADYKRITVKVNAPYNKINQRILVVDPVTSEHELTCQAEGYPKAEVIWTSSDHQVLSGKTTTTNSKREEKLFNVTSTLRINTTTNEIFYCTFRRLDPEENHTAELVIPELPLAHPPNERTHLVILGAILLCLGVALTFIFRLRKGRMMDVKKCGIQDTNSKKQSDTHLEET

CC(CCc1c[nH]c2ccccc12)N1C[C@H]2CC[C@@H](C1)C2N (some centres undefined)
IC50 [1]: 74.9 µM

O=C(Nc1cc(C(F)(F)F)ccc1N1CCCCC1)c1ccncc1
IC50 [2]: 0.96 µM

COc1cc2c(cc1OC)N(CCCN1CCN(CCO)CC1)c1cc(Cl)ccc1S2
IC50 [3]: 9.2 µM | IC50 (Splicing factor 45): 10.4 µM
